Data on seven molecules can be found in patent US20240252516A1, “COMBINATION BPH THERAPY WITH FEXAPOTIDE TRIFLUTATE, A 5-ARI, AND AN ALPHA BLOCKER” (Nymox Corporation, priority 2023, published 2024).

Ends that are not written are not given here.

Assay [1] has as its system patients with BPH. The assay can be described thus: Clinical trial in men with BPH: International Prostate Symptom Score (IPSS) change from baseline. In kind it is in vivo, human. The following applies: oral medication together with placebo PBS injection, >2 years after treatment. On the procedure:
Clinical trials were conducted on numerous individuals having BPH. All protocols were done in accordance with applicable regulations, and carried out by physicians.
In a study of 978 men, patients with BPH were first administered a course of antibiotics for a period of 2-4 weeks, and then given an intraprostatic injection of either a) 10 ml of FT in phosphate buffered saline (concentration of 0.25 mg/ml), pH 7.2 (“PBS”) or b) PBS alone, under double-blind conditions by a urologist in an office setting under ultrasound guidance. Each patient was followed for a number of years with regular physical examinations, laboratory tests, and evaluations of symptoms. Symptomatic evaluation was measured by the International Prostate Symptom Score (IPSS) which is a quantitative scale used to gauge prostatic symptomatic improvement or worsening. The IPSS quantifies the following: 1) incomplete bladder emptying after urination; 2) frequent urination; 3) stopping and starting during urination; 4) urgent need to urinate; 5) weakness of urinary stream; 6) need to push or strain during urination; 7) need to urinate after going to sleep at night (nocturia). […]
Using the results from the above tables, the average mean IPSS improvement of the respective medications, or combinations of medications can be determined, as well as the percent improvement in mean IPSS when compared to the average of the actives. […]

Assay [2] has as its system benign prostatic hyperplasia. The settings on record: McConnell et al.; cited from earlier work.
In assay [3] the test system is BPH patients. The following applies: CombAT trial, after 2 years; cited from earlier work.
In assay [4] the test system is 5α-reductase. The settings on record: blood; cited from earlier work.
The subject of assay [5] is α1- than α2-adrenergic receptors. The following applies: α1 versus α2 selectivity; cited from earlier work.
Assay [6] deals with prostate glandular epithelial cells. The assay can be described thus: Tissue culture genetic array, in vitro pathway activation. In kind it is cell-based. An excerpt:
FT is a new molecular entity which in vitro stimulates caspase pathways (activation of caspases 7, 8, and 10, caspase recruitment domains 6, 11, and 14, and DIABLO), tumor necrosis factor pathways (activation of TNF1, TNFSF6, TNFSF8, TNFSF9, CD70 ligands, and TNFRSF19L, TNFRSF25, TRAF2, TRAF3, TRAF4, TRAF6 receptors), and BCL pathways (activation of BIK, HRK, BCL2L10 and BCL3) in prostate glandular epithelial cells, based on tissue culture genetic array data. FT selectively causes loss of cell membrane integrity, mitochondrial metabolic arrest, depletion of RNA, DNA lysis and aggregation, and cell fragmentation and cell loss. The apoptotic process leads to typical ultrastructural progressive changes of membranous disruption and swelling, progressively deepening nuclear invaginations with eventual membranous bleb formations and cell death and fragmentation into apoptotic bodies. Histologically, typical apoptotic changes with positive immunohistochemical staining of markers for apoptosis are found throughout the injected areas for up to several weeks after treatment.

With `CN1CC(=O)N2[C@H](c3ccc4c(c3)OCO4)c3[nH]c4ccccc4c3C[C@@H]2C1=O` [PDE5 Inhibitor, tadalafil], the “Mean IPSS Improvement, oral meds alone” value in assay [1] is on record as 4.67.

For `COc1cc2nc(N3CCN(C(=O)C4COc5ccccc5O4)CC3)nc(N)c2cc1OC` (centres unmarked) [doxazosin, 1-(4-amino-6,7-dimethoxy-2-quinazolinyl)-4-[(2,3-dihydro-1,4-benzodioxin-2-yl)carbonyl]piperazine], in assay [2], the “long term (4 year) mean IPSS improvement” value was 6.6. Regarding `C[C@]12C=CC(=O)N[C@@H]1CC[C@@H]1[C@@H]2CC[C@]2(C)[C@@H](C(=O)Nc3cc(C(F)(F)F)ccc3C(F)(F)F)CC[C@@H]12` [dutasteride, 17β-N-(2,5-bis(Trifluoromethyl))phenylcarbamoyl-4-aza-5α-androst-1-en-3-one], the “mean decrease in IPSS from baseline” value in assay [3] is 4.9. The “reduction in circulating DHT levels” value in assay [4] was “up to 98%”.

Consider `CC(C)(C)NC(=O)[C@H]1CC[C@H]2[C@@H]3CC[C@H]4NC(=O)C=C[C@]4(C)[C@H]3CC[C@]12C` [finasteride], for which, in assay [2], the “long term (4 year) mean IPSS improvement” value is 5.6. Moreover, in assay [4], the “reduction in circulating DHT levels” value was 65 to 70%. With `Cc1ccc(N(CC2=NCCN2)c2cccc(O)c2)cc1` [phentolamine], in assay [5], the “potency in inhibiting α1- than α2-adrenergic receptors” value is given as “three to five times more potent”. As for `CCOc1ccccc1OCCN[C@H](C)Cc1ccc(OC)c(S(N)(=O)=O)c1` [tamsulosin, (R)-5-(2-{[2-(2-Ethoxyphenoxy)ethyl]amino}propyl)-2-methoxybenzene-1-sulfonamide], the “mean decrease in IPSS from baseline” value in assay [3] is on record as 4.3. Take “Ile-Asp-Gln-Gln-Val-Leu-Ser-Arg-lle-Lys-Leu-Glu-lle-Lys-Arg-Cys-Leu (IDQQVLSRIKLEIKRCL; also: trifluoroacetate salt) [FT, 1: …]”: in assay [6], the “BCL pathways (BIK, HRK, BCL2L10, BCL3)” value is listed as “stimulates”; the “caspase pathways (caspases 7, 8, 10, caspase recruitment domains 6, 11, 14, DIABLO)” value is reported as “stimulates”; the “tumor necrosis factor pathways (TNF1, TNFSF6, TNFSF8, TNFSF9, CD70 ligands, TNFRSF19L, TNFRSF25, TRAF2, TRAF3, TRAF4, TRAF6 receptors)” value is “stimulates”.
